Reference: patent US20250059141A1, “TLR MODULATOR AND USE THEREOF” (DUALITY BIOLOGICS (SUZHOU) CO., LTD., priority 2021, published 2025)

Columns and labels:
[1] = system: IFN-α production in human PBMCs; assay: Induction of IFN-α in human PBMCs (ELISA); format: cell-based; conditions: PBMC, 24 h, serial 4-fold dilutions, class symbols, read-out: PBMC assay IFNa EC50
Method: In this example, the induction activity of the compounds of the present application on human PBMCs for TNF-α and IFN-α production was assessed in human PBMCs (human peripheral blood mononuclear cells). The human PBMCs were purchased from Shanghai Saily Biotechnology Co., Ltd. (Cat. No. XFB—HP100B). PBMC cells were treated with the compounds. The compounds of the present application are diluted in DMSO, for example, to about 15 mM. The reference compound was added to the plates in sequence after diluted to 5 mg/mL. The compounds were serially 3- or 4-fold diluted to 8 concentrations and added to plates in duplicate (Table 2-1 for serial 3-fold dilutions and Table 2-2 for serial 4-fold dilutions). For the negative control wells, DMSO was added at 0.4 μL/well, and a 5 mg/mL reference compound solution was added to the positive control wells at 0.4 μL/well. The final concentration of DMSO was 0.2%. Frozen human PBMCs in cryopreservation tubes were quickly thawed in a 37° C. water bath and transferred into 50-mL centrifuge tubes. Prewarmed RPMI1640 medium was gradually added and the mixture was well mixed and centrifuged for 15 min before the supernatant was discarded. The cells were resuspended in a culture medium and counted. The cell suspension was adjusted to 2.5×10^6 cells/mL with the culture medium. Diluted cells were added at 200 μL/500,000 cells/well in 96-well plates containing the compounds. The cell plates were incubated at 37° C./5% CO2 for 24 h.
The plate was washed 4 times, then the detection antibody was added. […] The plate was washed 4 additional times, then the enzyme was added. […] Termination of reaction: The reaction was terminated by quickly adding the stop solution at 100 μL/well. Plate reading: The reading at wavelength 450 nm was detected by an M2e instrument within 10 min after the termination.
Compound activity data analysis: The OD450 values were converted to TNF-α and IFN-α contents by GraphPad Prism software analysis and fitted to give dose-response curves of the compounds. The EC50 values for the compounds were calculated, where the Emax values are the maximal values for TNF-α and IFN-α.

[2] = molecular target: T1, hTLR8 (human Toll-like receptor 8) (Homo sapiens, UniProt Q9NR97); assay: HEK-Blue hTLR8 reporter assay (QUANTI-Blue, OD650); format: cell-based; conditions: HEK-Blue hTLR8 cells, 24 h; class symbols; read-out: Reporter assay TLR8 EC50
T1 construct: host or cells: HEK-Blue hTLR8 (HEK293-derived reporter cells)
T1 sequence (Q9NR97 27-1041): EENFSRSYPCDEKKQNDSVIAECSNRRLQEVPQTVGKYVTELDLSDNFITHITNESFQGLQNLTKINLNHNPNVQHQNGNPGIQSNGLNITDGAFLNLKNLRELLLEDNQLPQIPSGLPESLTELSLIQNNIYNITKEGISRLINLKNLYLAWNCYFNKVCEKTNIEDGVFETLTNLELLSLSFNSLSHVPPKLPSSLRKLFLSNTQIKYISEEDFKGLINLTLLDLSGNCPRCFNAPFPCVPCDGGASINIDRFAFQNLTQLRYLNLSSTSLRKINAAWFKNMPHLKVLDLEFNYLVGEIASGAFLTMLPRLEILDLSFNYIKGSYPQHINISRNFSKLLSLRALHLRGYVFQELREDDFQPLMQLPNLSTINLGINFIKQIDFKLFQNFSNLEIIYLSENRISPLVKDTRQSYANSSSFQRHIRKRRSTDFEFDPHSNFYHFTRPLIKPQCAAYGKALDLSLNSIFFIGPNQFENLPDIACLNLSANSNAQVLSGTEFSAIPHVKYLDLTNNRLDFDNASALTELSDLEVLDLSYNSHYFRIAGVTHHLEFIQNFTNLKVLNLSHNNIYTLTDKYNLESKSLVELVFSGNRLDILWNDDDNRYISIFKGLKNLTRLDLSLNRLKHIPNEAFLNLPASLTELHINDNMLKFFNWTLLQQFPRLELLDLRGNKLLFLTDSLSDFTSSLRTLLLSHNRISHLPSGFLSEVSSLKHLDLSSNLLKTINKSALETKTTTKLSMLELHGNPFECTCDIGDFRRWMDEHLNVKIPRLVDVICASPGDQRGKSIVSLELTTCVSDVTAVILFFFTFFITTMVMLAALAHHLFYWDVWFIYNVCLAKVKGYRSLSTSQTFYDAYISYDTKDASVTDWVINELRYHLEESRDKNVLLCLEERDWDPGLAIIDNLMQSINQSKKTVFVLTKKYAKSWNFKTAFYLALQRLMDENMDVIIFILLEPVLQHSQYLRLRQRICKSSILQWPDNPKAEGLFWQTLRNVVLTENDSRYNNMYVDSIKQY
Method: In this example, the agonistic activity of the compounds of the present application on hTLR7 (human Toll-like receptor 7) and hTLR8 (human Toll-like receptor 8) was assessed; the induction activity of the compounds on human PBMCs for TNF-α and IFN-α production was assessed in human PBMCs (human peripheral blood mononuclear cells).
All compounds were formulated in DMSO into 30 mM stock solutions and preserved at 4° C. The reference compound ([…], Cat. No. tlrl-r848-5) was purchased from InvivoGen and formulated into a 5 mg/mL stock solution in DMSO and preserved in a freezer at −20° C. HEK-Blue hTLR7 and HEK-Blue hTLR8 cell lines were purchased from InvivoGen, and human PBMCs were purchased from Shanghai Saily Biotechnology Co., Ltd. (Cat. No. XFB—HP100B).
The major instruments used in this study were multifunctional microplate reader Flexstation III (Molecular Device), Envision (Perkin Elmer), M2e (Molecular Device), and Echo555 (Labcyte). 2.1 Agonistic activity of compounds on hTLR7 (human Toll-like receptor 7) and hTLR8 (human Toll-like receptor 8)
Compound dilution: The compounds of the present application are diluted in DMSO, for example, to about 15 mM. The reference compound was added to the plates in sequence after dilution. The compounds were serially 3-fold diluted to 10 concentrations and added to 96-well plates in duplicate.
For the negative control wells, DMSO was added at 0.2 μL/well, and the reference compound was added to the positive control wells. The final concentration of DMSO was 0.2%.
Cell plating: When an 80% confluence of HEK Blue hTLR7&8 cells in the culture flask was observed under a microscope, the culture medium was discarded, 10 mL of detection medium was added, and the cells were separated by pipetting. The cells were counted on a cytometer and diluted to 500,000 cells/mL. The cells were plated at 100 μL/50,000 cells/well in the 96-well plates containing the compounds. The compounds and cells were co-incubated at 37° C. in a 5% CO2 incubator for 24 hours.
Compound activity detection: 20 μL of cell supernatant was taken from each well and added to a plate containing QUANTI-Blue™ reagent at 180 μL/well. The plate was incubated at 37° C. for 1 hour, and the absorbance at 650 nm (OD650) was measured on the multifunctional microplate reader Flexstation III.
Compound activity data analysis: The OD650 values were analyzed by GraphPad Prism software and fitted to give dose-response curves of the compounds. The EC50 values of compounds were calculated.

| SMILES | EC50 [1] | EC50 [2] |
| --- | --- | --- |
| CCCN(OCc1ccc(N)cc1)C(=O)C1=Cc2ccc(-c3cncc(S(=O)(=O)N4CCNCC4)c3)cc2N=C(N)C1 [Compound 69] | 50 to 500 nM | ≤ 10 nM |
| CCCN(OCc1ccc(N)cc1)C(=O)C1=Cc2ccc(-c3cncc(S(=O)(=O)NCCO)c3)cc2N=C(N)C1 [Compound 70] | 10 to 50 nM | ≤ 10 nM |
| CCCN(OCc1ccc(N)cc1)C(=O)C1=Cc2ccc(-c3cncc(S(=O)(=O)N4CCC(O)CC4)c3)cc2N=C(N)C1 [Compound 71] | 10 to 50 nM | ≤ 10 nM |
| CCCN(OCc1ccc(N)cc1)C(=O)C1=Cc2ccc(-c3cncc(S(=O)(=O)N4CC[C@H](O)C4)c3)cc2N=C(N)C1 [Compound 72] | 10 to 50 nM | ≤ 10 nM |
| CCCN(OCc1ccc(N)cc1)C(=O)C1=Cc2ccc(-c3cncc([S+](C)[O-])c3)cc2N=C(N)C1 (stereo not drawn) [Compound 73] | ≤ 10 nM | ≤ 10 nM |
| CCCN(OCc1ccc(N)cc1)C(=O)C1=Cc2ccc(C(=O)NC(C)(C)c3ccccc3)cc2N=C(N)C1 [Compound 76] | 10 to 50 nM | ≤ 10 nM |
| CCCN(OCc1ccc(N)cc1)C(=O)C1=Cc2ccc(C(=O)N[C@@H](C)c3ccccc3)cc2N=C(N)C1 [Compound 77] | 10 to 50 nM | ≤ 10 nM |
| CCCN(OCc1ccc(N)cc1)C(=O)C1=Cc2ccc(C(=O)N[C@H]3C[C@@H]3c3ccccc3)cc2N=C(N)C1 [Compound 78] | ≤ 10 nM | ≤ 10 nM |
| CCCN(OCc1ccc(N)cc1)C(=O)C1=Cc2ccc(C(=O)NC3COC3)cc2N=C(N)C1 [Compound 81] | 10 to 50 nM | 10 to 100 nM |
| CCCN(OCc1ccc(N)cc1)C(=O)C1=Cc2ccc(C(=O)NC3CCCCC3)cc2N=C(N)C1 [Compound 82] | 50 to 500 nM | ≤ 10 nM |
| CCCN(OCc1ccc(N)cc1)C(=O)C1=Cc2ccc(C(=O)NC3CCOCC3)cc2N=C(N)C1 [Compound 84] | 50 to 500 nM | 10 to 100 nM |
| CCCN(OCc1ccc(N)cc1)C(=O)C1=Cc2ccc(C(=O)Nc3cncc(OC)c3)cc2N=C(N)C1 [Compound 85] | 50 to 500 nM | ≤ 10 nM |
| CCCN(OCc1ccc(N)cc1)C(=O)C1=Cc2ccc(C(=O)Nc3cccc(CN)c3)cc2N=C(N)C1 [Compound 86] | 50 to 500 nM | ≤ 10 nM |
| CCCN(OCc1ccc(N)cc1)C(=O)C1=Cc2ccc(C(=O)Nc3ncco3)cc2N=C(N)C1 [Compound 87] | 50 to 500 nM | ≤ 10 nM |
| CCCN(OCc1ccc(N)cc1)C(=O)C1=Cc2ccc(C(=O)Nc3ccn(C)n3)cc2N=C(N)C1 [Compound 88] | 50 to 500 nM | ≤ 10 nM |
| CCCN(OCc1ccc(N)cc1)C(=O)C1=Cc2ccc(C(=O)Nc3ccc4cn[nH]c4c3)cc2N=C(N)C1 [Compound 89] | 50 to 500 nM | 10 to 100 nM |
| CCCN(OCc1ccc(N)cc1)C(=O)C1=Cc2ccc(C(=O)Nc3ccc4c(c3)CNC4)cc2N=C(N)C1 [Compound 90] | 50 to 500 nM | ≤ 10 nM |
| CCCN(OCc1ccc(N)cc1)C(=O)C1=Cc2ccc(C(=O)N3CCN(C)CC3)cc2N=C(N)C1 [Compound 93] | 50 to 500 nM | ≤ 10 nM |
| CCCN(OCc1ccc(N)cc1)C(=O)C1=Cc2ccc(C(=O)N3CC(Oc4ccccc4)C3)cc2N=C(N)C1 [Compound 94] | 50 to 500 nM | ≤ 10 nM |
| CCCN(OCc1ccc(N)cc1)C(=O)C1=Cc2ccc(C(=O)N3CC4(COC4)C3)cc2N=C(N)C1 [Compound 95] | 50 to 500 nM | ≤ 10 nM |
| CCCN(OCc1ccc(N)cc1)C(=O)C1=Cc2ccc(C(=O)N3CCN(c4ccccc4)CC3)cc2N=C(N)C1 [Compound 97] | > 500 nM | ≤ 10 nM |
